Article PMC12203311, “Design, synthesis, in silico and in vitro evaluation of pyrrole–indole hybrids as dual tubulin and aromatase inhibitors with potent anticancer activities” (RSC Advances, 2025)

Tests used:
HL-60 (TB) = experiment: NCI60 five-dose screen; assay type: cell-based; conditions: Homo sapiens, leukemia; for CC50: read-out: LC50 (the source's name)
NCI-H23 = experiment: NCI60 five-dose screen; assay type: cell-based; conditions: Homo sapiens, NCI-H23, NSC lung cancer; for CC50: read-out: LC50 (the source's name)
HCC-2998 = experiment: NCI60 five-dose screen; assay type: cell-based; conditions: Homo sapiens, HCC-2998, colon cancer; for CC50: read-out: LC50 (the source's name)
SF-295 = experiment: NCI60 five-dose screen; assay type: cell-based; conditions: Homo sapiens, SF-295, CNS cancer; for CC50: read-out: LC50 (the source's name)
T-47D = experiment: NCI60 five-dose screen; assay type: cell-based; conditions: Homo sapiens, T47D, breast cancer; for CC50: read-out: LC50 (the source's name)
[1] = system: NCI60 human cancer cell line panel; experiment: NCI60 five-dose screen, ranges over the panel; assay type: cell-based
SR = experiment: NCI60 five-dose screen; assay type: cell-based; conditions: Homo sapiens, leukemia
porcine brain tubulin = target: T1, porcine brain tubulin (Sus scrofa, UniProt P02550+P02554); experiment: Tubulin polymerisation assay (fluorescence-based); assay type: biochemical; conditions: 10 µM, 37 °C
T1 construct: a solution containing porcine brain tubulin (2 mg mL^−1); purchased Cytoskeleton BK011P; host or cells: porcine brain (tissue-purified)
T1 sequence (P02554 whole entry): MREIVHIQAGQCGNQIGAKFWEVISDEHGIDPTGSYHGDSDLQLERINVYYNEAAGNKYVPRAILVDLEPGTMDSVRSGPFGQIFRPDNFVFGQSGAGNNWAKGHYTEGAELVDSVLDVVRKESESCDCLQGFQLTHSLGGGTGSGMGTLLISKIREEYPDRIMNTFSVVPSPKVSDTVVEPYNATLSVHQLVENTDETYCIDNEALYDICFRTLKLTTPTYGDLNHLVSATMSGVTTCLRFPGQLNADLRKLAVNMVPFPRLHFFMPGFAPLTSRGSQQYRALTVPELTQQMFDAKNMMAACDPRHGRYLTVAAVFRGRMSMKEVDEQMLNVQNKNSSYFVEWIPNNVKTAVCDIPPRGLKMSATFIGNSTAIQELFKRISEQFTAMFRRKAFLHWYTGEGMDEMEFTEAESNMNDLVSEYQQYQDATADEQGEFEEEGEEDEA
T1 sequence (P02550 whole entry): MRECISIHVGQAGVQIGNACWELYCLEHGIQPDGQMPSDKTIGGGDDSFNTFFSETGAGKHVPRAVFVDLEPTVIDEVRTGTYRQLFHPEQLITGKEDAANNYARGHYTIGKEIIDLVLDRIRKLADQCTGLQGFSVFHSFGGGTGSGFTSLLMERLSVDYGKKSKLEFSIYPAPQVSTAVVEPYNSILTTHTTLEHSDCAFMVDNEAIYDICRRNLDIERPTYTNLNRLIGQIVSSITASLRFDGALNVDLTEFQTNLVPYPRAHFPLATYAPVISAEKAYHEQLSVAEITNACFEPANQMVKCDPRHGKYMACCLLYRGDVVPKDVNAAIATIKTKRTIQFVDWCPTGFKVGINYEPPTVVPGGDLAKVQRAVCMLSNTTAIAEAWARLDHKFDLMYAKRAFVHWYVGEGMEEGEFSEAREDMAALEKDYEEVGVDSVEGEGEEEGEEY
Description: The tubulin polymerisation experimental protocol followed the method described in this literature.[28] The experimental was using fluorescence-based assay kit (Cytoskeleton, catalog no. BK011P). In Brief, 5 µL of test compounds was added to a 96-well plate, then mix with 50 µL of a solution containing porcine brain tubulin (2 mg mL^−1) in buffer with 20% glycerol and 1 mM GTP. A microplate reader (Varioskan™ LUX multimode microplate reader, Thermo Scientific™) was used to measure fluorescence intensity every 60 seconds for 60 minutes, with excitation at 360 nm and emission at 450 nm, maintained at 37 °C throughout the experiment.

**Q.** How did the GI50 (HL-60 (TB)) turn out when `O=C(N/N=C/c1cc(Br)c(Br)[nH]1)c1[nH]c2ccc(Br)cc2c1-c1ccccc1` [Derivative 3f, (E)-5-Bromo-N′-((4,5-dibromo-1H-pyrrol-2-yl)methylene)-3-phenyl-1H-indole-2-carbohydrazide] was run?
**A.** The GI50 was 2.38 µM.

**Q.** And the CC50 (HL-60 (TB))?
**A.** Its CC50 is 88.8 µM.

**Q.** What about the GI50 (NCI-H23) of the same molecule?
**A.** Its GI50 is 2.62 µM.

**Q.** What about the CC50 (NCI-H23) of the same molecule?
**A.** Its CC50 is 34 µM.

**Q.** And the GI50 (HCC-2998)?
**A.** Its GI50 is 2.3 µM.

**Q.** And the CC50 (HCC-2998)?
**A.** The CC50 was 24 µM.

**Q.** And the GI50 (SF-295)?
**A.** The GI50 was 2.2 µM.

**Q.** And the CC50 (SF-295)?
**A.** Its CC50 is 26.9 µM.

**Q.** And the GI50 (T-47D)?
**A.** Its GI50 is 3.84 µM.

**Q.** What about the CC50 (T-47D) of the same molecule?
**A.** Its CC50 is 74.3 µM.

**Q.** And the GI50 ([1]; five-dose experiment, all cell lines, read-out: GI50 values (range over the panel))?
**A.** The GI50 was 0.53 to 6.8 µM.

**Q.** With `O=C(N/N=C/c1cc(Cl)c[nH]1)c1[nH]c2ccc(Br)cc2c1-c1ccccc1` [Derivative 3h, (E)-5-Bromo-N′-((4-chloro-1H-pyrrol-2-yl)methylene)-3-phenyl-1H-indole-2-carbohydrazide] as the molecule, how does the GI50 (HL-60 (TB)) read?
**A.** Its GI50 is 0.185 µM.

**Q.** And the CC50 (HL-60 (TB))?
**A.** Its CC50 is 0.886 µM.

**Q.** What about the GI50 (SR) of the same molecule?
**A.** The GI50 was 0.179 µM.

**Q.** And the CC50 (SR; read-out: LC50 (the source's name))?
**A.** Its CC50 is 4.6 µM.

**Q.** And the GI50 (NCI-H23)?
**A.** Its GI50 is 0.317 µM.

**Q.** And the CC50 (NCI-H23)?
**A.** Its CC50 is 36.5 µM.

**Q.** What about the GI50 (HCC-2998) of the same molecule?
**A.** Its GI50 is 0.224 µM.

**Q.** And the CC50 (HCC-2998)?
**A.** The CC50 was 4.2 µM.

**Q.** And the GI50 (SF-295)?
**A.** The GI50 was 0.237 µM.

**Q.** What about the CC50 (SF-295) of the same molecule?
**A.** Its CC50 is 58.5 µM.

**Q.** And the GI50 (T-47D)?
**A.** The GI50 was 0.546 µM.

**Q.** What about the CC50 (T-47D) of the same molecule?
**A.** Its CC50 is 92.6 µM.

**Q.** What about the CC50 ([1]; HL-60 (TB), K-562, SR, NCI-H460, COLO 205, HCC-2998, HT29, SK-MEL-5, OVCAR-8, read-out: LC50 values (range over named cell lines)) of the same molecule?
**A.** The CC50 was 0.8 to 7.2 µM.

**Q.** And the “RFU in tubulin polymerization assay” value (porcine brain tubulin)?
**A.** The value was about 40 arbitrary units.
